Laboratory results: ChEMBL document CHEMBL1148261, “Pharmacophore-based search, synthesis, and biological evaluation of anthranilic amides as novel blockers of the Kv1.5 channel” (Bioorg Med Chem Lett, 2004)

Key:
[1] = target: T1, Potassium voltage-gated channel subfamily A member 5 (Homo sapiens, UniProt P22460); test: Inhibitory effect against human voltage-gated potassium channel subunit Kv1.5 expressed in Xenopus oocytes; assay type: cell-based, Oocyte
[2] = pKa value was determined; assay type: physicochemical
[3] = target: T1, Potassium voltage-gated channel subfamily A member 5; test: Percent inhibition of human voltage-gated potassium channel subunit Kv1.5 expressed in Xenopus oocytes at 10 uM; assay type: cell-based; conditions: Oocyte
[4] = Oral bioavailability of compound in rats; assay type: ADME, organism-based; conditions: rat, in vivo

T1 sequence (P22460 whole entry): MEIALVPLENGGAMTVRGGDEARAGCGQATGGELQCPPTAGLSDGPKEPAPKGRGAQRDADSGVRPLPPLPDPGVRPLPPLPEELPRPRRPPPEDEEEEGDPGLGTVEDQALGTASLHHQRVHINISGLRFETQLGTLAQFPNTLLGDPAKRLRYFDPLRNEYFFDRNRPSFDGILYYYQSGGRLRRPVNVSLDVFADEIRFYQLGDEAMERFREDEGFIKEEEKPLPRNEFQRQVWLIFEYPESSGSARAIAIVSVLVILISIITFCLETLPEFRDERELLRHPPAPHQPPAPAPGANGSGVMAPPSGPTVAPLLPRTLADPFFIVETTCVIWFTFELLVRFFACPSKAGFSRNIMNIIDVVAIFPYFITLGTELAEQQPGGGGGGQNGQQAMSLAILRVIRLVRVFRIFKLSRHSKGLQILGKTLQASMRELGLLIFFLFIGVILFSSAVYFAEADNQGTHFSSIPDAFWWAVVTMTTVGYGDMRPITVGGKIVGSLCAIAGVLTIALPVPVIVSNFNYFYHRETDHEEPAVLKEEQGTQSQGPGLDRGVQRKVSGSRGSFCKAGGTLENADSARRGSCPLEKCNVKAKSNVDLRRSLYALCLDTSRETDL

IC50 [1] [µM]	also measured	Structure (SMILES)
4	pKa [2]: 6.2	CC[C@H](NC(=O)c1ccccc1NS(=O)(=O)c1ccc(C(F)(F)F)cc1)c1ccccc1
3.8	–	CC[C@H](NC(=O)c1cc(C(C)=O)ccc1NS(=O)(=O)c1ccc(C)cc1)c1ccccc1
6.7	–	Cc1ccc(S(=O)(=O)Nc2ccccc2C(=O)NCCc2ccccc2)cc1
–	pKa [2]: 7.5	CC[C@H](NC(=O)c1cc(OC)ccc1NS(=O)(=O)c1ccc(C)cc1)c1ccccc1
0.6	–	CC[C@H](NC(=O)c1ccccc1NS(=O)(=O)c1cccc2cccnc12)c1ccccc1
–	inhibition [3]: 15%	CC[C@H](NC(=O)c1cc(OCN(C)C)ccc1NS(=O)(=O)c1ccc(C)cc1)c1ccccc1
0.7	pKa [2]: 7.2	CC[C@H](NC(=O)c1ccccc1NS(=O)(=O)c1ccc(C)cc1)c1ccccc1
–	bioavailability [4]: 43%	Cc1ccc(S(=O)(=O)Nc2ccccc2C(=O)N(Cc2ccccc2)Cc2cccnc2)cc1
2.2	–	Cc1ccc(S(=O)(=O)Nc2ccccc2C(=O)N(Cc2cccnc2)Cc2cccnc2)cc1
–	inhibition [3]: 46%	CC[C@H](NC(=O)c1cc(OCCOC)ccc1NS(=O)(=O)c1ccc(C)cc1)c1ccccc1
1.3	pKa [2]: 6.9	CC[C@H](NC(=O)c1ccccc1NS(=O)(=O)c1ccccc1)c1ccccc1
–	inhibition [3]: 41%	CC[C@H](NC(=O)c1cc(OCC2CC2)ccc1NS(=O)(=O)c1ccc(C)cc1)c1ccccc1
1.6	–	Cc1ccc(S(=O)(=O)Nc2ccccc2C(=O)NC(c2ccccc2)C2CC2)cc1 (configuration not stated)
–	inhibition [3]: 36%	CC[C@H](NC(=O)c1ccccc1NS(=O)(=O)c1cccnc1)c1ccccc1
9	–	CC[C@H](NC(=O)c1ccccc1NS(=O)(=O)c1cccc2cnccc12)c1ccccc1
3.8	pKa [2]: 6.5	CC[C@H](NC(=O)c1cc(F)ccc1NS(=O)(=O)c1ccc(Cl)cc1)c1ccccc1
5.6	–	O=C(NCc1ccccc1)c1cc(Cl)ccc1NS(=O)(=O)c1ccc(Cl)cc1
10	–	CC[C@H](NC(=O)c1ccccc1NS(=O)(=O)CC)c1ccccc1
